Results published in publication PMC7932537, “Quantitative profiling of protease specificity” (PLoS Computational Biology, 2021).

Key:
MMP-9 [1] = biological target: MMP-9 (Homo sapiens, UniProt P14780); experiment: K(obs) of individual phage substrates (set of 1369); format: biochemical; conditions: MMP9; individual phage substrate of the set of 1369 peptides; dash in sequence marks cleavage position
MMP-2 = biological target: T1, MMP-2 (Homo sapiens, UniProt P08253); experiment: as above; format: biochemical; conditions: MMP2; individual phage substrate from the set of 1369 peptides; hyphen in the sequence marks the cleavage position
T1 sequence (P08253 110-660): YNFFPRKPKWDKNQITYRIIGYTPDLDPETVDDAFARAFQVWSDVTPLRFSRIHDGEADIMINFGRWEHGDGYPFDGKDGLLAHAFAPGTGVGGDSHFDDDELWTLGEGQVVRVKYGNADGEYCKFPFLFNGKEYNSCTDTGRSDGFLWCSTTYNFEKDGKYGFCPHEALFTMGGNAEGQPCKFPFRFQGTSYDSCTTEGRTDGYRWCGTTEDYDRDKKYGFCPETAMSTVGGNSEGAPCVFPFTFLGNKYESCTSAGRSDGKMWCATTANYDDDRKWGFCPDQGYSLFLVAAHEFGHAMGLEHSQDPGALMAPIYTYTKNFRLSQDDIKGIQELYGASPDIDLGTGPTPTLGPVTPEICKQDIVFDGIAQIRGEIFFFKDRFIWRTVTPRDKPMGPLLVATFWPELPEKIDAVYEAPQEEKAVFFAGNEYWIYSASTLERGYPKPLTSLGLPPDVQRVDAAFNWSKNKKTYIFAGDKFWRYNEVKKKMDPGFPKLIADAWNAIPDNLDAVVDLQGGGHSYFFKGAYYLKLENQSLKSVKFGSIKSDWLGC

MMP-9 [2] = experiment: Substrate phage display with NGS: relative probability (RP) of P3-P1' tetramer clusters; format: biochemical, human; conditions: MMP9; RP of the substrate's P3-P1' tetramer, substrate phage display with NGS;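 further: ratio of tetramer probability after protease selection to that in naive phage library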

Sequence of MMP-9 (Homo sapiens, UniProt P14780) (P14780 94-707): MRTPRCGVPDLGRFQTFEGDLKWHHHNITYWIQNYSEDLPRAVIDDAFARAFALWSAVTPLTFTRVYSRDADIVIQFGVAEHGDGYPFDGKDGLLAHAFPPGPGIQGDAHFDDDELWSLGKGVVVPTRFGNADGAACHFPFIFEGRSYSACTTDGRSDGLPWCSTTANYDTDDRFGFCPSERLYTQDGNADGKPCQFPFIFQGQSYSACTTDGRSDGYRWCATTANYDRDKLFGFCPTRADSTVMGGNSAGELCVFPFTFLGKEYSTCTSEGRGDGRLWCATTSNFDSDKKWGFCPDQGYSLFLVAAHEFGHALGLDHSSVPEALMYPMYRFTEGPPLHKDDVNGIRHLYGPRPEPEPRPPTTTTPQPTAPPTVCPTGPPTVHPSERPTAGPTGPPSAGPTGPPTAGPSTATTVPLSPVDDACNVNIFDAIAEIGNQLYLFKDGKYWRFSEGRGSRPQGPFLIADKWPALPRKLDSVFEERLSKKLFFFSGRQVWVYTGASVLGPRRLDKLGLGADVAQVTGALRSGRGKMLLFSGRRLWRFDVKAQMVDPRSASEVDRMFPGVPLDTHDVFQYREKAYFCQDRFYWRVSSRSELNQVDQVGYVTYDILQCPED

| Substance | Kobs (MMP-9 [1]) [M⁻¹ s⁻¹] | Kobs (MMP-2) [M⁻¹ s⁻¹] | relative probability (RP) (MMP-9 [2]) |
| --- | --- | --- | --- |
| RVPVP-MTASG | 9740.44 | 2038.8 | 46.3561 |
| MWVLS-LTASG | 8941.32 | 12792.1 | 27.5596 |
| FAPAE-VTASG | 3438.54 | 12792.1 | 5.593 |
| DSPLS-LTASG | 12792.1 | 12792.1 | 48.1735 |
| YGPRA-ITASG | 12792.1 | 12792.1 | 47.8426 |
| SGPSR-LTFTA | 12792.1 | 12792.1 | 39.8157 |
| LAPRY-WTASG | 12792.1 | 12792.1 | 27.5973 |
| SGPRD-ILATA | 12792.1 | 12792.1 | 41.2501 |
| GVPRA-VTASG | 12792.1 | 6396.07 | 40.8515 |
| IGVRA-LTASG | 12792.1 | 12792.1 | 43.1929 |
| GSAIP-LWTAS | 2038.8 | 1418.96 | 32.5296 |
| SGPKL-LYGTA | 12792.1 | 4205.91 | 35.7561 |
| PKLAA-ITASG | 0 | 12792.1 | 1.188 |
| WAINA-LTASG | 551.253 | 4922.1 | 1.369 |
| GHPSP-FTASG | 0 | 12792.1 | 37.3217 |
| LGPSH-YTASG | 12792.1 | 12792.1 | 38.4805 |
| LIPTS-LTASG | 12792.1 | 12792.1 | 31.9505 |
| WRPFS-YTASG | 12792.1 | 12792.1 | 43.4281 |
| GGPAP-MWTAS | 5667.28 | 2476.66 | 45.1106 |
| GYPRG-LGTAS | 12792.1 | 12792.1 | 47.3825 |
| GYFAN-LTASG | 0 | 12792.1 | 0.8121 |
| ESIRH-LTASG | 5667.28 | 12792.1 | 35.7683 |
| SGALN-FYSTA | 8941.32 | 2761.81 | 19.1713 |
| GAPAK-LRTAS | 10866.7 | 12792.1 | 39.5582 |
| KIPSA-LTASG | 9740.44 | 12792.1 | 47.6113 |
| TIPSW-STASG | 2476.66 | 5461.43 | 17.8128 |
| GSPRN-LRTAS | 12792.1 | 12792.1 | 48.2698 |

| Substance | Kobs (MMP-9 [1]) [M⁻¹ s⁻¹] | Kobs (MMP-2) [M⁻¹ s⁻¹] | relative probability (RP) (MMP-9 [2]) |
| --- | --- | --- | --- |
| GRPAQ-MKTAS | 5667.28 | 3850.82 | 38.7952 |
| GRLLA-MHTAS | 1112.44 | 2687.73 | 12.6533 |
| AHPSA-LTASG | 12792.1 | 12792.1 | 47.6113 |
| SGASN-LRGTA | 12792.1 | 12792.1 | 27.6194 |
| GEPLF-LRTAS | 12792.1 | 12792.1 | 38.6603 |
| GFPRA-FRTAS | 7815.03 | 12792.1 | 44.1248 |
| PSLAE-LTASG | 654.784 | 8941.32 | 0.4438 |
| GNPLG-IRTAS | 12792.1 | 12792.1 | 48.5606 |
| SGVRS-ITWTA | 3637.04 | 261.974 | 25.6748 |
| GHIAW-FTASG | 1513.13 | 12792.1 | 7.9655 |
| SGISW-MRHTA | 2476.66 | 7815.03 | 21.4 |
| GTPIE-LYTAS | 9740.44 | 8321.48 | 35.3641 |
| GQPRA-IRTAS | 12792.1 | 12792.1 | 47.8426 |
| SSPLA-LTASG | 12792.1 | 12792.1 | 48.3776 |
| RLVNW-MTASG | 2687.73 | 3850.82 | 19.0749 |
| RGPSS-YTASG | 12792.1 | 12792.1 | 41.6306 |
| MGPWF-MTASG | 9740.44 | 0 | 35.6409 |
| SGPRS-LKSTA | 12792.1 | 12792.1 | 44.7764 |
| VVPNN-LTASG | 12792.1 | 12792.1 | 38.7188 |
| NIPTR-LTASG | 1327.88 | 12792.1 | 15.5872 |
| ILVWN-YTASG | 12792.1 | 4922.1 | 30.7196 |
| FYFSN-LTASG | 0 | 12792.1 | 0.7913 |
| TQPSP-FTASG | 9740.44 | 12792.1 | 37.3217 |
| SQPMA-YTASG | 12792.1 | 12792.1 | 49.7335 |
| SGPYS-WQVTA | 4613.14 | 1513.13 | 33.8051 |
| HTVRG-LTASG | 12792.1 | 12792.1 | 42.3063 |
| SRPVY-LTASG | 12792.1 | 12792.1 | 32.5397 |
